Data from article PMC3740782, “Synthesis of some potent immunomodulatory and anti-inflammatory metabolites by fungal transformation of anabolic steroid oxymetholone” (Chemistry Central Journal, 2012).

Assays:
[1] = test system: T-cell proliferation (PHA activated human peripheral mononuclear cells, PBMC); experiment: T-cell proliferation inhibition assay (PHA-activated PBMC, tritiated thymidine incorporation); type: cell-based; conditions: PHA (5 μg/mL) stimulated PBMC, 72 h + 18 h thymidine pulse, mean of triplicate ± SD, read-out: IC50, inhibitory effect on T-cell proliferation
Experimental: Peripheral blood mononuclear cells (PBMC) were isolated from heparinized venous blood of healthy adult donors by Ficoll–Hypaque gradient centrifugation. Cells were proliferated as reported earlier. Briefly, cells were cultured at a concentration of 2 × 10^6/mL in a 96-well round bottom tissue culture plate. Cells were stimulated with 5 μg/mL of phytohemagglutinin. Various concentrations of compounds were added to obtain final concentrations of 0.5, 5, 50 μg/mL, each in triplicate. The plate was incubated for 72 h at 37°C in 5% CO2 environment. After 72 h, cells were pulsed with 0.5 μCi/well, tritiated thymidine, and further incubated for 18 h. Cells were harvested onto a glass fiber filter by using cell harvester. The tritiated thymidine incorporation into the cells, which reflects the proliferation level, was measured by a liquid scintillation counter.

[2] = test system: ROS production in whole blood phagocytes; experiment: Luminol-enhanced phagocyte chemiluminescence assay, ROS production in whole blood; type: cell-based; conditions: zymosan activated, luminol probe, mean of triplicate ± SD; for IC50: Homo sapiens
Experimental: (§1) Luminol-enhanced chemiluminescence assay was performed according to the previous reported method. Briefly 25 μL of whole blood or neutrophils (1 × 10^6/mL), suspended in Hank’s solution, were incubated with 25 μL compounds (1, 10, 100 μg/mL for whole blood and 0.5, 5, 50 μg/mL for neutrophils) for 30 min. Zymosan 25 μL (20 mg/mL), followed by 25 μL (7 × 10^-5 M) of luminol was added to make a final volume of 100 μL. A control without the compound was also run. Peak chemiluminescence was recorded using the luminometer. The luminometer was set with repeated scan mode, 50 scans with 30 s intervals and one second point measuring time.

[3] = test system: ROS production in PMNs; experiment: Luminol-enhanced phagocyte chemiluminescence assay, ROS production in isolated PMNs (neutrophils); type: cell-based; conditions: Homo sapiens, Neutrophil, zymosan activated, luminol probe, mean of triplicate ± SD
Experimental: as §1

[4] = test system: T-cells; set-up: method as in PMID 11071398; conditions: by decreasing the activity of T-cells; cited from earlier work

Compound | IC50 [1] [mg/L] | IC50 [2] [mg/L] | IC50 [3] [mg/L] | melting point [°C] | IC50, ROS production (Whole Blood phagocytes) ([2]; human whole blood) [mg/L] | Immunosuppressant activity in vivo [4]
C[C@]12C[C@@H](CO)C(=O)C[C@@H]1CC[C@@H]1[C@@H]2CC[C@@]2(C)[C@H]1CC[C@]2(C)O [Compound 6, 17β-Hydroxy-2α-(hydroxymethyl)-17α-methyl-5α-androstan-3-one] | 2.7 ± 0.2 | > 100 | > 50 | 197 to 199 | – | –
C[C@]12C[C@@H](CO)[C@H](O)C[C@@H]1CC[C@@H]1[C@@H]2CC[C@@]2(C)[C@H]1CC[C@@]2(O)CO [Compound 3, 2α,17α-Di(hydroxymethyl)-5α-androstan-3β-17β-diol] | 17 ± 1.2 | > 100 | > 50 | – | – | –
CC(C)Cc1ccc(C(C)C(=O)O)cc1 (centres unmarked) [Ibuprofen, reference compound] | – | 11.2 ± 1.9 | 2.5 ± 0.6 | – | – | –
C[C@]12C[C@@H](CO)[C@H](O)C[C@@H]1CC[C@@H]1[C@@H]2CC[C@@]2(C)[C@H]1CC[C@]2(C)O [Compound 7, 2α-(Hydroxymethyl)-17α-methyl-5α-androstan-3β-17β-diol] | 10.6 ± 0.4 | 25.6 | > 50 | 279 to 281 | – | –
C[C@]12C=CC(=O)C=C1CC[C@@H]1[C@@H]2[C@@H](O)C[C@@]2(C)[C@H]1CC[C@]2(O)C(=O)CO [Prednisolone, reference compound] | < 3.1 | – | – | – | – | –
C[C@]12CC(=CO)C(=O)C[C@@H]1CC[C@@H]1[C@@H]2CC[C@@]2(C)[C@H]1CC[C@]2(C)O [Compound 1, 17β-hydroxy-2-(hydroxymethylene)-17α-methyl-5α-androstan-3-one, reference compound] | 7.5 ± 0.4 | ~2 | 6.3 ± 0.1 | – | 2.3 ± 0.0 | immunosuppressant activity
C[C@]12C=C(CO)C(=O)C[C@@H]1CC[C@@H]1[C@@H]2CC[C@@]2(C)[C@H]1CC[C@]2(C)O [Compound 2, 17β-Hydroxy-2-(hydroxymethyl)-17α-methyl-5α-androstan-1-en-3-one] | 17.4 ± 1.2 | ~2 | – | – | – | –
C[C@]12C=C(CO)C(=O)C=C1CC[C@@H]1[C@@H]2CC[C@@]2(C)[C@H]1CC[C@]2(C)O [Compound 5, 17β-Hydroxy-2-(hydroxymethyl)-17α-methylandrost-1,4-dien-3-one] | 31.2 ± 1.9 | > 100 | > 50 | 163 to 164 | – | –
CC12CC(O)C(O)CC1CCC1C2CCC2(C)C1CCC2(C)O (stereo not drawn) [Compound 4, 17α-Methyl-5α-androstan-2α,3β-17β-triol] | 11.8 ± 0.9 | > 100 | > 50 | 124 to 125 | – | –
